In PMC5223566, “The Benzopyrone Biochanin-A as a reversible, competitive, and selective monoamine oxidase B inhibitor” (BMC Complementary and Alternative Medicine, 2017):
“And” between values parts separate entries of the source, which are not always exact repeats. Equal entries are not always repeated. Where two headings read alike, the source gives them in different places.

Assays:
[1] = target: T1, recombinant human MAO-A (hMAO-A) (Homo sapiens, UniProt P21397); assay: hMAO-A continuous spectrophotometric assay (enzymatic H2O2 production); format: biochemical; conditions: for RSA (relative selectivity for hMAO-A): hMAO-B IC50/hMAO-A IC50
T1 construct: purchased Sigma-Aldrich; host or cells: baculovirus infected insect cells
T1 sequence (P21397 1-527): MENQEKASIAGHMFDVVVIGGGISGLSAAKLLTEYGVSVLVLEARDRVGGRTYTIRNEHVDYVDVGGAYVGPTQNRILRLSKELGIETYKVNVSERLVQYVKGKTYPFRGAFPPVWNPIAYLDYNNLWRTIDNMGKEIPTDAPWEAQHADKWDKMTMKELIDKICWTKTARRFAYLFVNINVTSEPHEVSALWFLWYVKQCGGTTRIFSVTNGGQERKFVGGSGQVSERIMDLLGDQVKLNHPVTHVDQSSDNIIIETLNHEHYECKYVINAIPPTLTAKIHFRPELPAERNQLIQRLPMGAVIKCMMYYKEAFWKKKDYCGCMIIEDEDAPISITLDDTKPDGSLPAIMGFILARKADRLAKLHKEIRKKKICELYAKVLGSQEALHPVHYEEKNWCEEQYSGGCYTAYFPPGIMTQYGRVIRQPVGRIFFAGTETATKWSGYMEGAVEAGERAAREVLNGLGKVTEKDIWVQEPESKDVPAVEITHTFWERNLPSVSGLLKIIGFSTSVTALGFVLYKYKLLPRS
Procedure: (§1) A slightly modified continuous spectrophotometric assay [25] for measuring enzymatic H2O2 production was validated before the experiments. In this assay, the peroxidase chromogen reagent of 1 mM of vanillic acid and 500 μM 4-aminoantipyrine, and 4 U purpurogallin/mL of horseradish peroxidase (HRP) type-II in HBSS (pH 7.4) was prepared and validated with H2O2 standard curve. […] Isozymes were diluted to 0.7 U/mL final concentration by 10 mM HEPES in HBSS (pH 7.4). Substrates final concentrations were optimized to be 0.5 and 3 mM tyramine HCl and benzylamine HCl for hMAO-A and hMAO-B reactions. […] Stock solvents (ethanol or dimethyl sulfoxide) were kept ≤ 2% the final volume of all assays.
(§2) The six benzopyrones of 5 × final concentrations between 0 to 400 μM and PCSEE from 0 to 250 μg/mL of at least ten data points were prepared in HBSS (pH 7.4). […] Freshly prepared volumes of 50 μL of 2.5 × substrate and peroxidase chromogen mix (1:1) were added. Absorbance was immediately read at 490 nm by the Bio-Tek μQuant Monochromatic Microplate Spectrophotometer for time zero. H2O2 production progression for each enzyme was measured every 20 min for the duration of the assay. First read measurements and the blanks background were subtracted from all absorbance values.

[2] = target: T2, recombinant human MAO-B (hMAO-B) (Homo sapiens, UniProt P27338); assay: hMAO-B continuous spectrophotometric assay (enzymatic H2O2 production); format: biochemical; conditions: for IC50: 3 mM benzylamine, 40 min preincubation at RT, ± SEM
T2 construct: purchased Sigma-Aldrich; host or cells: baculovirus infected insect cells
T2 sequence (P27338 1-520): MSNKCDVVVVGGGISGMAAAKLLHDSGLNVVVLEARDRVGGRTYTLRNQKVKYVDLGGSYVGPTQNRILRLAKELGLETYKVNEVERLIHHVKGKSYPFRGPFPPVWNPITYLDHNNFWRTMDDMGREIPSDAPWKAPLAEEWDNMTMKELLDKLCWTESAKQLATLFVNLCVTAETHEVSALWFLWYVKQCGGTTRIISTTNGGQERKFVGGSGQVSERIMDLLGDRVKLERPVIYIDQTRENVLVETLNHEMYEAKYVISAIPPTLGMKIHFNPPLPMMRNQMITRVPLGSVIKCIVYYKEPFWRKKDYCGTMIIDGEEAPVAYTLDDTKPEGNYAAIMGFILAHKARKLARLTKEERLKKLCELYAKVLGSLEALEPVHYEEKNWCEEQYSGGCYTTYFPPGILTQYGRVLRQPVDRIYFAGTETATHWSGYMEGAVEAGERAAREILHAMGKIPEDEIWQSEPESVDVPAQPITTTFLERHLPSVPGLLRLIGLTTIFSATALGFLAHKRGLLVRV
Procedure: as §1, §2

hMAO-B [3] = target: T3, hMAO-B (Homo sapiens, UniProt P27338); assay: hMAO-B MAO-Glo luminescence assay; format: biochemical; set-up: purchased Sigma-Aldrich; host or cells: baculovirus infected insect cells; conditions: 10 μg/mL; MAO-Glo kit
T3 sequence (P27338 1-520): T2 sequence (P27338 1-520)
Procedure: A slightly modified continuous spectrophotometric assay for measuring enzymatic H2O2 production was validated before the experiments. In this assay, the peroxidase chromogen reagent of 1 mM of vanillic acid and 500 μM 4-aminoantipyrine, and 4 U purpurogallin/mL of horseradish peroxidase (HRP) type-II in HBSS (pH 7.4) was prepared and validated with H2O2 standard curve. The linearity of reaction on the instrument was confirmed to reach up to 1.76 nmol per reaction volume with R^2 of 0.9999. Isozymes were diluted to 0.7 U/mL final concentration by 10 mM HEPES in HBSS (pH 7.4). Substrates final concentrations were optimized to be 0.5 and 3 mM tyramine HCl and benzylamine HCl for hMAO-A and hMAO-B reactions. The assay was run with and without different standard MAOIs with different selectivities (DEP, CLORG, pirlindole, and rasagiline) and monitored for few hours. Isozymes were found stable within the time of incubation. Stock solvents (ethanol or dimethyl sulfoxide) were kept ≤ 2% the final volume of all assays.
A buffer of 12.5 μL was used to make equivalent blank volumes of wells without enzyme. […] Reporter luciferase detects reagent of 50 μL was incubated with each reaction for 20-30 min to inhibit the enzyme and produce luminescence. Arbitrary light units (ALU) signal changes were measured by Synergy HTX Multi-Reader from Bio-Tek and converted to percent control change.

[4] = H2O2 scavenging activity assay; conditions: 15 μM H2O2; PCSEE and ascorbic acid 62.5, 125, 250 μg/mL; BIO-A 6.25, 12.5, 25 μg/mL
Procedure: The H2O2 scavenging activity of PCSEE and BIO-A at their highest used MAO inhibitory concentrations was investigated and compared to the standard scavenger L-ascorbic acid. […] Buffer substituted the H2O2 (n = 4) to make blank wells. Immediately, peroxidase chromogen-containing vanillic acid, 4-aminoantipyrine, and HRP type-II were prepared as in the MAO spectrophotometric assay and added as 25 μL per well. The developing color at 490 nm was optimally read within 15 min at RT using Bio-Tek Synergy HTX Multi-Reader absorbance.

hMAO-A [5] = target: T4, hMAO-A (Homo sapiens, UniProt P21397); assay: hMAO-A recovery after dilution (reversibility); format: biochemical
T4 construct: purchased Sigma-Aldrich; host or cells: baculovirus infected insect cells
T4 sequence (P21397 1-527): T1 sequence (P21397 1-527)

hMAO-B [6] = target: T3, hMAO-B; assay: Michaelis-Menten kinetics of hMAO-B; conditions: mixed enzyme inhibition model, GraphPad Prism; ± SEM
hMAO-B [7] = target: T3, hMAO-B; assay: hMAO-B recovery after dilution (reversibility); format: biochemical; set-up: purchased Sigma-Aldrich; host or cells: baculovirus infected insect cells
hMAO-A [8] = target: T4, hMAO-A; assay: hMAO-A MAO-Glo luminescence assay; format: biochemical; conditions: 10 μg/mL; MAO-Glo kit
[9] = spectrophotometric assay, 0.5 mM tyramine, 40 min preincubation at RT, ± SEM, read-out: hMAO-A IC50
[10] = 0.1 × IC50 after 100-fold dilution (diluted)
[11] = 1 × IC50 after 100-fold dilution (diluted)
[12] = recovery after dilution, monitored with time

**Q.** With `CC(C)=CCc1c(O)cc2c(c1O)C(=O)C[C@@H](c1ccc(O)cc1)O2` [6-PN, 6-prenylnaringenin] as the compound, how does the IC50 [1, 9] read?
**A.** Its IC50 is 54.53 ± 0.31 µM.

**Q.** And the “RSB (relative selectivity for hMAO-B)” value ([2]; hMAO-A IC50/hMAO-B IC50)?
**A.** The value was 3.0.

**Q.** And the IC50 ([2]; spectrophotometric assay)?
**A.** Its IC50 is 17.9 ± 1.84 µM.

**Q.** And the “relative effectiveness between isozymes, luminescence assay” value (“relative effectiveness between isozymes” for short) (hMAO-B [3])?
**A.** Its value is “more effective against hMAO-B”.

**Q.** Which results are given for `COc1ccc(-c2coc3cc(O)cc(O)c3c2=O)cc1` [BIO-A, 5,7-dihydroxy-4'-methoxyisoflavone]?
**A.** H2O2 scavenging activity [4]: did not show any scavenging activities; % hMAO-A H2O2 production control (hMAO-A [5]; [10]): 90%; % hMAO-A H2O2 production control (hMAO-A [5]; 1 × IC50, undiluted): 44.5%; % hMAO-A H2O2 production control (hMAO-A [5]; [11]): 52% and ~ 50%; reversibility of hMAO-A inhibition (hMAO-A [5]; [12]): reversible inhibitor; hMAO-B inhibition model alpha (hMAO-B [6]): > 1; % hMAO-B H2O2 production control (hMAO-B [7]; [10]): 80%; % hMAO-B H2O2 production control (hMAO-B [7]; 1 × IC50, undiluted): 36%; % hMAO-B H2O2 production control (hMAO-B [7]; [11]): 51% and ~ 50%; reversibility of hMAO-B inhibition (hMAO-B [7]; [12]): reversible inhibitor

**Q.** Which “% hMAO-A H2O2 production control” value (hMAO-A [5]; [10]) does the source give for `C#CCN(C)[C@H](C)Cc1ccccc1` [DEP, selegiline, reference compound] here?
**A.** Its value is 7%.

**Q.** For `O=c1ccc2ccc3occc3c2o1` [IPS, isopsoralen], which IC50 [1] is on record?
**A.** Its IC50 is 20.6 ± 2.45 µM.

**Q.** And the “RSA (relative selectivity for hMAO-A)” value [1]?
**A.** The value was 2.5.

**Q.** And the IC50 ([2]; spectrophotometric assay)?
**A.** The IC50 was 51 ± 0.24 µM.

**Q.** What about the “relative effectiveness between isozymes” value (hMAO-A [8]) of the same compound?
**A.** The value was “more effective against hMAO-A”.

**Q.** Which “RSA (relative selectivity for hMAO-A)” value [1] does the source give for `CC(C)=CCc1cc(-c2coc3cc(O)ccc3c2=O)ccc1O` [NBI, neobavaisoflavone] here?
**A.** The value was 1.2.

**Q.** And the IC50 [1, 9]?
**A.** Its IC50 is 66.5 ± 5.66 µM.

**Q.** And the IC50 ([2]; spectrophotometric assay)?
**A.** The IC50 was 77.3 ± 10.6 µM.

**Q.** And the “relative effectiveness between isozymes” value (hMAO-A [8])?
**A.** Its value is “more effective against hMAO-A”.

**Q.** Which “RSA (relative selectivity for hMAO-A)” value [1] does the source give for `O=c1ccc2cc3ccoc3cc2o1` [PS, psoralen] here?
**A.** Its value is 2.0.

**Q.** And the IC50 [1, 9]?
**A.** The IC50 was 89 ± 5.74 µM.

**Q.** What about the IC50 ([2]; spectrophotometric assay) of the same compound?
**A.** Its IC50 is 175 ± 50.9 µM.

**Q.** And the “relative effectiveness between isozymes” value (hMAO-A [8])?
**A.** The value was “more effective against hMAO-A”.

**Q.** With `CC(C)=CCc1cc2c(cc1O)oc(=O)c1c3ccc(O)cc3oc21` [PSD, psoralidin] as the compound, how does the “hMAO-A inhibition (in words)” value ([1]; spectrophotometric assay, up to 400 μM) read?
**A.** The value was “no detectable inhibition”.

**Q.** What about the “hMAO-B inhibition (in words)” value ([2]; spectrophotometric assay, up to 400 μM, p < 0.001) of the same compound?
**A.** Its value is “partial inhibition”.

**Q.** For `O=C1O[C@H]([C@@H](O)CO)C(O)=C1O` [ascorbic acid, L-ascorbic acid, reference compound], which H2O2 scavenging activity [4] is on record?
**A.** The H2O2 scavenging activity was “complete scavenging activity”.
